This passage reports MIC and Ki results from ChEMBL document CHEMBL2331254, “Pyrrolopyrimidine inhibitors of DNA gyrase B (GyrB) and topoisomerase IV (ParE), Part II: development of inhibitors with broad spectrum, Gram-negative antibacterial activity” (Bioorg Med Chem Lett, 2013).

Converted amounts (≈) assume the structure as drawn. Where only a bound is given, the exact number is not on record here.

Experiment [1] deals with Escherichia coli. Kind of experiment: Antibacterial activity against permeabilized Escherichia coli IBAS849 by broth microdilution method. Format: functional. (In general: Dilution methods test growth across graded concentrations, often in twofold steps.)
A short description of experiment [2]: Inhibition of Francisella tularensis parE assessed as release of inorganic phosphate from ATP hydrolysis after 30 mins by coupled spectrophotometric assay.
Experiment [3] deals with Escherichia coli. As to the kind of experiment: Antibacterial activity against wild type Escherichia coli ATCC 25922 by broth microdilution method. It is filed as functional.
In experiment [4] the test system is Staphylococcus aureus. Kind of experiment: Antibacterial activity against Staphylococcus aureus ATCC 13709 by broth microdilution method. Format: functional.
The subject of experiment [5] is Escherichia coli. Kind of experiment: Antibacterial activity against Escherichia coli BW25113 harboring deltatolC by broth microdilution method. It is filed as functional.
Experiment [6] can be described thus: Inhibition of Francisella tularensis GyrB assessed as release of inorganic phosphate from ATP hydrolysis after 30 mins by coupled spectrophotometric assay.
Experiment [7] in a line: Inhibition of Escherichia coli GyrB assessed as release of inorganic phosphate from ATP hydrolysis after 30 mins by coupled spectrophotometric assay.
Experiment [8] can be described thus: Inhibition of Escherichia coli parE assessed as release of inorganic phosphate from ATP hydrolysis after 30 mins by coupled spectrophotometric assay.

By MIC is commonly meant the smallest concentration in the dilution series that meets the test's criterion for growth inhibition. For orientation: Ki means the equilibrium dissociation constant of an inhibitor or competing ligand from its target. Consider `CCc1[nH]c2nc(Sc3cnc4nccnc4c3)nc(N3CC(N)C3)c2c1Cl`, for which the MIC in experiment [1] is 8 µg/mL (≈ 19.4 µM); in experiment [3], 64 µg/mL (≈ 155 µM); in experiment [4], 1 µg/mL (≈ 2.42 µM); in experiment [5] it was 4 µg/mL (≈ 9.69 µM). Besides, the figures for the Ki in experiment [2] and in experiment [6] were 5 nM and 7 nM, respectively.

As for `CCc1[nH]c2nc(Sc3ccc4c(c3)C(=O)NC4)nc(N3C[C@@H]4[C@@H](N)[C@@H]4C3)c2c1Cl`, the MIC in experiment [1] came out at 4 µg/mL (≈ 9.07 µM); in experiment [3], 32 µg/mL (≈ 72.6 µM); in experiment [4], 0.5 µg/mL (≈ 1.13 µM); in experiment [5] it was 1 µg/mL (≈ 2.27 µM). The values for the Ki in experiment [7] and in experiment [8] were 4 nM and 8 nM, respectively.

As to `CCc1[nH]c2nc(Sc3cnc4nccnc4c3)nc(N3C[C@@H]4[C@@H](N)[C@@H]4C3)c2c1Cl`, the MIC was determined as 0.5 µg/mL (≈ 1.14 µM) in experiment [1], 8 µg/mL (≈ 18.2 µM) in experiment [3], 0.13 µg/mL (≈ 0.296 µM) in experiment [4] and 0.5 µg/mL (≈ 1.14 µM) in experiment [5]. In addition, the Ki in experiment [7] was under 0.5 nM; in experiment [6], under 1 nM; in experiment [8] it was 1 nM.

Consider `CCc1[nH]c2nc(Sc3ccc4nccnc4c3)nc(N3C[C@@H]4[C@@H](N)[C@@H]4C3)c2c1Cl`, for which the MIC in experiment [1] was 0.25 µg/mL (≈ 0.571 µM); in experiment [3], over 64 µg/mL; in experiment [4], at most 0.13 µg/mL; in experiment [5], 0.25 µg/mL (≈ 0.571 µM). Further, the figures for the Ki in experiment [7] and in experiment [8] were under 0.5 nM and 1 nM, respectively.

On to `CCc1[nH]c2nc(Sc3ccc4cccnc4c3)nc(N3C[C@@H]4[C@@H](N)[C@@H]4C3)c2c1Cl`, for which the MIC in experiment [1] is 4 µg/mL (≈ 9.15 µM); in experiment [3], over 64 µg/mL; in experiment [4], 0.25 µg/mL (≈ 0.572 µM); in experiment [5], 1 µg/mL (≈ 2.29 µM). In addition, the Ki in experiment [7] came to 1 nM; in experiment [8], 6 nM.

Consider `CCc1[nH]c2nc(Sc3ccc4ccc[n+]([O-])c4c3)nc(N3C[C@@H]4[C@@H](N)[C@@H]4C3)c2c1Cl`, for which the MIC in experiment [1] was 1 µg/mL (≈ 2.21 µM); in experiment [3] it was 8 µg/mL (≈ 17.7 µM); in experiment [4], at most 0.13 µg/mL; in experiment [5], 0.25 µg/mL (≈ 0.552 µM). In addition, the Ki in experiment [7] was under 0.5 nM; in experiment [8] it was under 1 nM.

`CCc1[nH]c2nc(Sc3cnc4c(c3)c(=O)ncn4C)nc(N3C[C@@H]4[C@@H](N)[C@@H]4C3)c2c1Cl`: the MIC in experiment [1] worked out at 2 µg/mL (≈ 4.26 µM); in experiment [3], 32 µg/mL (≈ 68.2 µM); in experiment [4], 0.5 µg/mL (≈ 1.07 µM); in experiment [5], 2 µg/mL (≈ 4.26 µM). Besides, the Ki is 5 nM in experiment [7] and 3 nM in experiment [8].

Consider `CCc1[nH]c2nc(Sc3cccnc3)nc(NC[C@H](C)O)c2c1Cl`, for which the MIC was 32 µg/mL (≈ 87.9 µM) in experiment [1], over 64 µg/mL in experiment [3] and 4 µg/mL (≈ 11 µM) in experiment [4]. In addition, the Ki in experiment [2] is 173 nM; in experiment [6] it was 171 nM.

Regarding `CCc1[nH]c2nc(Sc3cnc4nccnc4c3)nc(NC[C@H](C)O)c2c1Cl`, the MIC is 8 µg/mL (≈ 19.2 µM) in experiment [1], over 64 µg/mL in experiment [3], 1 µg/mL (≈ 2.4 µM) in experiment [4] and 4 µg/mL (≈ 9.62 µM) in experiment [5]. The Ki was 23 nM in experiment [2] and 43 nM in experiment [6].

On to `CCc1[nH]c2nc(Sc3cnc4nccnc4c3)nc(N3CC(O)C3)c2c1Cl`, for which the MIC in experiment [1] is 4 µg/mL (≈ 9.66 µM); in experiment [3], over 64 µg/mL; in experiment [4], 0.25 µg/mL (≈ 0.604 µM); in experiment [5], 2 µg/mL (≈ 4.83 µM). Also, the Ki in experiment [2] was determined as 5 nM; in experiment [6] it was 7 nM.
